Results: patent publication US20260241062A1, “WATER-DISPERSED PRESSURE-SENSITIVE ADHESIVE COMPOSITION AND PRESSURE-SENSITIVE ADHESIVE SHEET” (NITTO DENKO CORPORATION, priority 2023, published 2026)
Like-named read-outs stand apart in the source and are kept apart here.

How the values were obtained:
[1] = acid dissociation constant (pKa) of the monomers
[2] = at 20° C.; cited from earlier work
[3] = acid dissociation constant of each component

Row | Molecule | pKa [1] | Water solubility [2] | pKa [1, 3]
1 | C=C(C)C(=O)O [MAA, methacrylic acid] | 4.66 | 9.7 g/100 mL | 
2 | C=CC(=O)N(CC)CC [DEAA, diethylacrylamide] |  | Soluble | −0.77
3 | C=CC(=O)NC(C)C [NIPAM, N-isopropylacrylamide] | 14.8 | <0.1 g/100 mL | 
4 | 2-acryloyloxyethyl succinic acid [HOA-MS] |  |  | 4.35
5 | C=CN1CCCC1=O [NVP, N-vinylpyrrolidone] | -0.34 | Miscible | 
6 | C=C(C)C(=O)OC [MMA, methyl methacrylate] |  | 1.6 g/100 mL | 
7 | C=CC(=O)N1CCOCC1 [ACMO, N-acryloylmorpholine] | -1.08 |  | 
8 | C=CC(=O)NCCCN(C)C [DMAPAA, dimethylaminopropylacrylamide] |  | Soluble | 14.88
